Laboratory results reported in ChEMBL document CHEMBL3272110, “Synthesis and biological properties of 4-amino- and 4-bromo-4-norpyridoxol. New approaches for the modification of the 4 position of vitamin B6” (1976).
Active and inactive are the calls of the source. No cut-off for these calls is given here.

What was measured:
[1] = tested on: TA3; assay: Growth inhibition of mouse TA3 cells; assay type: functional
[2] = tested on: TA3; assay: Growth inhibition of mouse TA3 cells at 10^-4 M; assay type: functional

| Compound | ID50 [1] [×10⁻⁵ M] | growth inhibition (GI) [2] | other results |
| --- | --- | --- | --- |
| Cc1ncc(CO)c(C(F)(F)F)c1O | 2 | – | – |
| Cc1ncc(CO)c(/C=N/O)c1O | 8 | – | – |
| Cc1ncc(CBr)c(N)c1O | – | – | inhibition of growth at 100 µM ([2]; read-out: GI): 30% |
| Cc1ncc(CO)c(O)c1O | – | inactive | – |
| Cc1ncc(CO)c(N)c1O | – | inactive | – |
| Br.Cc1ncc(CO)c(Br)c1O | 1 | – | – |
